Reference: ChEMBL document CHEMBL4765443, “Covalent and noncovalent constraints yield a figure eight-like conformation of a peptide inhibiting the menin-MLL interaction” (Eur J Med Chem, 2020)
Positions of bridges follow the written chain, without caps; N, C: chain ends. Non-standard residues stand in square brackets, D forms with d. Residues, ends and D or L forms follow the SMILES beside them. Phe(3-F) = N[C@@H](Cc1cccc(F)c1)C(=O)O; AllylGly = C=CC[C@H](N)C(=O)O; Orn = NCCC[C@H](N)C(=O)O; Ac4c = NC1(C(=O)O)CCC1

Experiments:
[1] = biological target: T1, Menin/Histone-lysine N-methyltransferase MLL (Homo sapiens, UniProt O00255); assay: Inhibition of Menin-MLL protein-protein interaction (unknown origin) preincubated for 1 hr in presence of FLSN-MLL4-43 peptide followed by compound addition and measured after 1 hr by fluorescence polarization assay
T1 sequence (O00255 whole entry): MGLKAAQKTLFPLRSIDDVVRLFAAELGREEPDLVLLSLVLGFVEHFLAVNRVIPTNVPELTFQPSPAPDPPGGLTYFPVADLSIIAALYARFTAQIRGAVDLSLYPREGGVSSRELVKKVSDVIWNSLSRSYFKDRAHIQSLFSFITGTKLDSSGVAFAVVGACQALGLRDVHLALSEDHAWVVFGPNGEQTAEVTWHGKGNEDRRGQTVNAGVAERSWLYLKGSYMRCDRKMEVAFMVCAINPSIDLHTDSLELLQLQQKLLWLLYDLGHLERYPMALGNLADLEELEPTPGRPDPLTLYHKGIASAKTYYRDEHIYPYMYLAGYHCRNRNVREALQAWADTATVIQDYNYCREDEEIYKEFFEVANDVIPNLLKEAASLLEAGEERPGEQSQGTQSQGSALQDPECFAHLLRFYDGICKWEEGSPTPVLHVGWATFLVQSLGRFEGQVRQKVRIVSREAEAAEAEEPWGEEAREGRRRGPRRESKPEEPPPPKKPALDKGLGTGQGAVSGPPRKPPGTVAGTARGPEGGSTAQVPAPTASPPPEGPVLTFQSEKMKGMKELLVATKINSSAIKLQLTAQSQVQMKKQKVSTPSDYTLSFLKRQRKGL
T1 sequence (Q03164 1-2718 partner limits assumed): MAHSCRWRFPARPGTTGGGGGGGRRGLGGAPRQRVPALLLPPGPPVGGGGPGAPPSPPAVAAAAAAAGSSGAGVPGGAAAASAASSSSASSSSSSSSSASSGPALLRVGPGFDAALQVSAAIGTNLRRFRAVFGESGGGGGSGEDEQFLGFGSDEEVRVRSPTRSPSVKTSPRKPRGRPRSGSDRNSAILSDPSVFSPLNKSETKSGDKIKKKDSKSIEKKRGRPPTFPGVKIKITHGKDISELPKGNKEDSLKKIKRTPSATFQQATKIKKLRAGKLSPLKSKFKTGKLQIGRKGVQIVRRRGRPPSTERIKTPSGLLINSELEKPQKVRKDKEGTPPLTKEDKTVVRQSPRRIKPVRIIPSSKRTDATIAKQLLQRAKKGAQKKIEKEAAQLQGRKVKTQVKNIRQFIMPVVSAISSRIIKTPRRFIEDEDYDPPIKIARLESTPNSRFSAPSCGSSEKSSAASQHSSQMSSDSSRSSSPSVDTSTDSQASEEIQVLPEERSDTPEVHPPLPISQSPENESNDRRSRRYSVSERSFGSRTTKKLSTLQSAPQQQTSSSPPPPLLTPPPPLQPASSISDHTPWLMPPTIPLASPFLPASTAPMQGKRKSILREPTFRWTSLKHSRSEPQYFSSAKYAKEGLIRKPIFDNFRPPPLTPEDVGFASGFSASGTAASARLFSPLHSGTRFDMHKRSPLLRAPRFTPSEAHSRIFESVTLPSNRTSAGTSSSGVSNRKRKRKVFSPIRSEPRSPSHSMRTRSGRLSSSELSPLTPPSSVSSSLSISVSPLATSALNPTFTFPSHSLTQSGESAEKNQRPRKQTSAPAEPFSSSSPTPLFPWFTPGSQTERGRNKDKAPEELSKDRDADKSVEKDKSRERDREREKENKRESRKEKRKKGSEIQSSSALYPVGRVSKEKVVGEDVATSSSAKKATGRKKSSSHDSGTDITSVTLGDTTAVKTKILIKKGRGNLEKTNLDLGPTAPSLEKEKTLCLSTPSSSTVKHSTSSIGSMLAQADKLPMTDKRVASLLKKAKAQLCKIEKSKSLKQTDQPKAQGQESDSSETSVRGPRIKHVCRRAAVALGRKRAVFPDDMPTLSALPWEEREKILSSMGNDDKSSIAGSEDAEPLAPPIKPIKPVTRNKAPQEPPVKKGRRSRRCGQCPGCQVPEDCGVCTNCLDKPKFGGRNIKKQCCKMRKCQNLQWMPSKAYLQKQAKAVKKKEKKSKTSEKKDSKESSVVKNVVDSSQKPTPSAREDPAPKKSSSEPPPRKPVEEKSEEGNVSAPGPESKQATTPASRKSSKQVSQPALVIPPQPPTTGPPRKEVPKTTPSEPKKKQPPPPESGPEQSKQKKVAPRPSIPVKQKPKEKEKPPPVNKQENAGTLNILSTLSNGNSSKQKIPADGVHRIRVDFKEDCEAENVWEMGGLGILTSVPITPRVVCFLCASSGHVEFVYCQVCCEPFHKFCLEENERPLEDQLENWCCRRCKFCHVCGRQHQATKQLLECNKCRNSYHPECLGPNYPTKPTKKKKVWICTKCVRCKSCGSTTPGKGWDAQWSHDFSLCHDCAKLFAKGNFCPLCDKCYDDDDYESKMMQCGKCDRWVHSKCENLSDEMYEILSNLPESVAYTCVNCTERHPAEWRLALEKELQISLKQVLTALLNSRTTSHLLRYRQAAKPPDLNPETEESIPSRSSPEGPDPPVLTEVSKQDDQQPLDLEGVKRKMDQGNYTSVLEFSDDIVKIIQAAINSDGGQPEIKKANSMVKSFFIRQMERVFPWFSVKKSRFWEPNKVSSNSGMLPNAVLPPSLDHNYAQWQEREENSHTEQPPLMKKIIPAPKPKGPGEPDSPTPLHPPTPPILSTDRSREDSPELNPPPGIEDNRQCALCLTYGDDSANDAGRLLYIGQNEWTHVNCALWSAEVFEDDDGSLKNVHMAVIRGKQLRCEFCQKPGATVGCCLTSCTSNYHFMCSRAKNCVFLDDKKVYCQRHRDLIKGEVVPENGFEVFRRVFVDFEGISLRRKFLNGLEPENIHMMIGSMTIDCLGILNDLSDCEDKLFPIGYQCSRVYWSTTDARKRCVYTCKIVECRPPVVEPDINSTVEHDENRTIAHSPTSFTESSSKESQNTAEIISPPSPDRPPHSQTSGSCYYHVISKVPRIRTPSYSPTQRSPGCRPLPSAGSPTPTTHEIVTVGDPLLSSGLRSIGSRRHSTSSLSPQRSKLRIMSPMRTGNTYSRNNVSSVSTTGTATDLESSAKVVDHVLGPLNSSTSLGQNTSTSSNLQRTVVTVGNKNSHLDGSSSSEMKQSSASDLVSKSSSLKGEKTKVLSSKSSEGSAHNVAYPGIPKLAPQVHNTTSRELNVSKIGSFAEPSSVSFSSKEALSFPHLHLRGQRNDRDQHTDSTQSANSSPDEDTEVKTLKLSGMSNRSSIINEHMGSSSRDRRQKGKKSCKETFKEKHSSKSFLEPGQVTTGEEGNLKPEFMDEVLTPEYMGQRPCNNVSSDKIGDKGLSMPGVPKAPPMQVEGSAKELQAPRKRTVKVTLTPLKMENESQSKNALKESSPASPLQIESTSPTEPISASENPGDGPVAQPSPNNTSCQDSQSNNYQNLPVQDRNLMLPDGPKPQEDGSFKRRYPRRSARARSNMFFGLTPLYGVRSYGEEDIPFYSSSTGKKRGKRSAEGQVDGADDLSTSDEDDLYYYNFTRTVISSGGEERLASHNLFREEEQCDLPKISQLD
T1 sequence (Q03164 2719-3969 partner limits assumed): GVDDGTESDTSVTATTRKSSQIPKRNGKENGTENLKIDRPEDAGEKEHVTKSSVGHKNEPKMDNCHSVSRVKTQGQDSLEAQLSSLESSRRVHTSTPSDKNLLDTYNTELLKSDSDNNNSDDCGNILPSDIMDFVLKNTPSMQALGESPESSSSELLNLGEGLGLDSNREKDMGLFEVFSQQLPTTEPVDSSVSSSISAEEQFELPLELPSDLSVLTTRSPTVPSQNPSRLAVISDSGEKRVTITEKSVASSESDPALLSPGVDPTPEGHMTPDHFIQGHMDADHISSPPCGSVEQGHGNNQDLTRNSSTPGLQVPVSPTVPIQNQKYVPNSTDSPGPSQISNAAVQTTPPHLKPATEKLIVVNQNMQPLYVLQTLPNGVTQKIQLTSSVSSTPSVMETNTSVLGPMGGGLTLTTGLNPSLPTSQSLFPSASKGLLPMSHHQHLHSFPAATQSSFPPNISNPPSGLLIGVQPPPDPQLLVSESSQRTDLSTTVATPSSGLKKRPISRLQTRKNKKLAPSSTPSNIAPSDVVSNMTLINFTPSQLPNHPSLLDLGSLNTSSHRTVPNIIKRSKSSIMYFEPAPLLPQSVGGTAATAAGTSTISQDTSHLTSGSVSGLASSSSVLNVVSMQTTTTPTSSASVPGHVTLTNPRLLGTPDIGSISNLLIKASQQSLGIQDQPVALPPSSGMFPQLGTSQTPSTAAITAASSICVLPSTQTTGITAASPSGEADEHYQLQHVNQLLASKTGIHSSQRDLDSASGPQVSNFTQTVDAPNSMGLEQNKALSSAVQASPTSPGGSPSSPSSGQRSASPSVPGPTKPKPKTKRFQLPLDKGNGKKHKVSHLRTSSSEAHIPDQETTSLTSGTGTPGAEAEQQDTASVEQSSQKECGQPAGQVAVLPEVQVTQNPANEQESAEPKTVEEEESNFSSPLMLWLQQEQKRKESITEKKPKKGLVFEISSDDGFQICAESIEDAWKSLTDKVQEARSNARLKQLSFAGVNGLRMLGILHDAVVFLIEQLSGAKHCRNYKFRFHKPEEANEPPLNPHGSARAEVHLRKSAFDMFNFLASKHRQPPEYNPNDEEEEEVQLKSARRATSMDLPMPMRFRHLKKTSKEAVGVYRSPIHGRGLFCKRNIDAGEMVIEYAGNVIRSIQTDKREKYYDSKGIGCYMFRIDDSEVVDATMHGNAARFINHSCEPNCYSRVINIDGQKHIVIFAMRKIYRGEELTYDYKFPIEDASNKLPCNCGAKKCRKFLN

[2] = biological target: T1, Menin/Histone-lysine N-methyltransferase MLL; assay: Inhibition of Menin-MLL protein-protein interaction (unknown origin) preincubated for 1 hr in presence of FLSN-MBM1 peptide followed by compound addition and measured after 1 hr by fluorescence polarization assay

IC50 [1] [nM]	IC50 [2] [nM]	Molecule
4.6	–	CC(=O)N[C@@H](C)C(=O)N[C@@H](CCCNC(=N)N)C(=O)N[C@@H](Cc1c[nH]c2ccccc12)C(=O)N[C@H]1CCCC[C@@H](C(=O)N2CCC[C@H]2C(=O)N[C@@H](CCCN)C(=O)N[C@@H](CCCNC(=N)N)C(=O)N[C@@H](CCCNC(=N)N)C(=O)N[C@@H](CCCNC(=N)N)C(N)=O)NC(=O)C2(CCC2)NC(=O)[C@@H]2CCCN2C(=O)[C@H](Cc2cccc(F)c2)NC1=O
3590	84	CC(=O)N[C@@H](CO)C(=O)N[C@@H](C)C(=O)N[C@@H](CCCNC(=N)N)C(=O)N[C@@H](Cc1c[nH]c2ccccc12)C(=O)N[C@@H](CCCNC(=N)N)C(=O)N[C@@H](Cc1ccccc1)C(=O)N1CCC[C@H]1C(=O)N[C@@H](C)C(=O)N[C@@H](CCCNC(=N)N)C(=O)N1CCC[C@H]1C(=O)NCC(=O)N[C@H](C(N)=O)[C@@H](C)O
1230	–	CC(=O)N[C@@H](C)C(=O)N[C@@H](CCCNC(=N)N)C(=O)N[C@@H](Cc1c[nH]c2ccccc12)C(=O)N[C@H]1C/C=C\C[C@@H](C(=O)N2CCC[C@H]2C(=O)N[C@@H](CCCN)C(N)=O)NC(=O)C2(CCC2)NC(=O)[C@@H]2CCCN2C(=O)[C@H](Cc2cccc(F)c2)NC1=O (Ac-ARW[AllylGly][Phe(3-F)]P[Ac4c][AllylGly]P[Orn]-NH2; staple (Z) 4-8)
58	–	CC(=O)N[C@@H](C)C(=O)N[C@@H](CCCNC(=N)N)C(=O)N[C@@H](Cc1c[nH]c2ccccc12)C(=O)N[C@H]1C/C=C\C[C@@H](C(=O)N2CCC[C@H]2C(=O)N[C@@H](CCCN)C(=O)N[C@@H](CCCNC(=N)N)C(N)=O)NC(=O)C2(CCC2)NC(=O)[C@@H]2CCCN2C(=O)[C@H](Cc2cccc(F)c2)NC1=O (Ac-ARW[AllylGly][Phe(3-F)]P[Ac4c][AllylGly]P[Orn]R-NH2; staple (Z) 4-8)
2.35	–	CC(=O)N[C@@H](C)C(=O)N[C@@H](CCCNC(=N)N)C(=O)N[C@@H](Cc1c[nH]c2ccccc12)C(=O)N[C@H]1C/C=C\C[C@@H](C(=O)N2CCC[C@H]2C(=O)N[C@@H](CCCN)C(=O)N[C@@H](CCCNC(=N)N)C(=O)N[C@@H](CCCNC(=N)N)C(=O)N[C@@H](CCCNC(=N)N)C(N)=O)NC(=O)C2(CCC2)NC(=O)[C@@H]2CCCN2C(=O)[C@H](Cc2cccc(F)c2)NC1=O (Ac-ARW[AllylGly][Phe(3-F)]P[Ac4c][AllylGly]P[Orn]RRR-NH2; staple (Z) 4-8)
657	64	CC(=O)N[C@@H](CO)C(=O)N[C@@H](C)C(=O)N[C@@H](CCCNC(=N)N)C(=O)N[C@@H](Cc1c[nH]c2ccccc12)C(=O)N[C@H]1C/C=C\C[C@@H](C(=O)N2CCC[C@H]2C(=O)N[C@@H](CCCNC(=N)N)C(N)=O)NC(=O)C2(CCC2)NC(=O)[C@@H]2CCCN2C(=O)[C@H](Cc2cccc(F)c2)NC1=O (Ac-SARW[AllylGly][Phe(3-F)]P[Ac4c][AllylGly]PR-NH2; staple (Z) 5-9)
777	–	CC(=O)N[C@@H](CO)C(=O)N[C@@H](C)C(=O)N[C@@H](CCCNC(=N)N)C(=O)N[C@@H](Cc1c[nH]c2ccccc12)C(=O)N[C@H]1C/C=C\C[C@@H](C(=O)N2CCC[C@H]2C(=O)N[C@@H](CCCN)C(N)=O)NC(=O)C2(CCC2)NC(=O)[C@@H]2CCCN2C(=O)[C@H](Cc2cccc(F)c2)NC1=O (Ac-SARW[AllylGly][Phe(3-F)]P[Ac4c][AllylGly]P[Orn]-NH2; staple (Z) 5-9)
49	–	Ac-RWRFPARPGTGRR-NH2
